In one assay the target is T1, ENL-AF4 interaction (Homo sapiens, UniProt Q03111).
T1 construct: ENL AHD domain (489-559) was synthesized (by Genscript) and inserted into the pMAL c5X expression plasmid; made in house; host or cells: E. coli BL21(DE3)
In words: Alpha assay, ENL-AF4 interaction. It is filed as binding. To be noted: read-out: IC50, inhibition of ENL-AF4 interaction. Here is the method:
ENL is also a major MLL fusion partner (~10%). The AHD domains of human ENL and AF9 share a high homology with 82% identity and 89% similarity (Figure S1A). […] Our attempts to develop an Alpha assay for ENL-DOT1L failed. […] Compound 1's activity against ENL-DOT1L was therefore not determined.
Alpha assays. Alpha assays were developed using Perkin-Elmer AlphaLisa anti-MBP kit, which contains streptavidin donor beads and anti-MBP acceptor beads. The assay was performed using a MBP-protein (5 nM), a biotinylated peptide (40 nM), and increasing concentrations of a compound in 25 µL buffer (PBS with 0.5 % BSA, pH 7.5) in 384-well plates according to the manufacturer's protocol and measured with a Tecan SPARK microplate reader. Data were imported into Prism (version 5.0), and IC50 values from 3 independent experiments with standard deviation were obtained by using a standard dose-response curve fitting.

The target of the next assay is T2, AF9-DOT1L interaction (Homo sapiens, UniProt P42568).
T2 construct: cDNA for human AF9 AHD domain (475-568) and ENL AHD domain (489-559) was synthesized; made in house; host or cells: E. coli BL21(DE3)
T2 sequence (P42568 475-568): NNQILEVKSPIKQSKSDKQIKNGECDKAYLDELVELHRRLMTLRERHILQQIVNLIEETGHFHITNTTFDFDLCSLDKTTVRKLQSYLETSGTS
The experiment in a line: Fluorescence polarization (FP) inhibition assay, AF9-DOT1L. The format is binding. From the text: We developed an Alpha (amplified luminescent proximity homogeneous assay) assay to determine the binding and inhibition of the PPI between maltose-binding protein (MBP)-tagged AF9 AHD and a biotin-labeled DOT1L peptide, using AlphaLisa streptavidin donor beads and anti-MBP acceptor beads. Laser excitation to the donor beads generates singlet oxygen radicals, which can travel for <200 nm in solution and cannot reach the free acceptor beads. The PPI brings the DOT1L coated donor beads and AHD coated acceptor beads together, allowing the radicals to activate the acceptor beads and produce luminescence. […] We also developed a fluorescence polarization (FP) assay. A fluorescein-labeled DOT1L peptide has a higher freedom in solution with a lower polarization value.
Fluorescence polarization assay. It was performed in 96-well black microplates with each well containing a Fluorescein-labeled peptide (2 nM) and increasing concentration of a AF9/ENL protein in a buffer (20 mM HEPES, pH 7.5, 0.01% Triton X-100, 100 µL) for Kd determination. For IC50 determination, a Fluorescein-labeled peptide (2 nM), AF9/ENL protein (100 nM) and increasing concentration of a compound in the same buffer were placed in each well. Upon incubation of 1h, the FP value of each well was determined using a Tecan SPARK microplate reader. Data were similarly processed to obtain Kd or IC50 values.
For orientation: In fluorescence polarisation assays a small probe gives low polarisation when free and higher when bound to something large.

The next assay addresses DOT1L (Homo sapiens, UniProt Q8TEK3). In words: DOT1L enzyme inhibition. The format is biochemical. To be noted: at 100 µM (Figure S3: 30 or 100 µM). Here is the method:
Inhibition of DOT1L, LSD1 and p300 was performed using our previously reported methods, [37], [38].
LSD1, and p300 histone acetyltransferase at 30 or 100 µM, using our previous reported methods [Ref. 36, 37,
(1 picture or pasted object on this page, not shown here)

SMILES strings stand for the structures. pIC50: −log10 of the molar value. “And” between values parts separate entries of the source, which are not always exact repeats. Equal entries are not always repeated.

T1 sequence (Q03111 489-559): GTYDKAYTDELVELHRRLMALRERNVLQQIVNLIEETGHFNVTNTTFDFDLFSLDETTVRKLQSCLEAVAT
Sequence of DOT1L (Q8TEK3 1-472): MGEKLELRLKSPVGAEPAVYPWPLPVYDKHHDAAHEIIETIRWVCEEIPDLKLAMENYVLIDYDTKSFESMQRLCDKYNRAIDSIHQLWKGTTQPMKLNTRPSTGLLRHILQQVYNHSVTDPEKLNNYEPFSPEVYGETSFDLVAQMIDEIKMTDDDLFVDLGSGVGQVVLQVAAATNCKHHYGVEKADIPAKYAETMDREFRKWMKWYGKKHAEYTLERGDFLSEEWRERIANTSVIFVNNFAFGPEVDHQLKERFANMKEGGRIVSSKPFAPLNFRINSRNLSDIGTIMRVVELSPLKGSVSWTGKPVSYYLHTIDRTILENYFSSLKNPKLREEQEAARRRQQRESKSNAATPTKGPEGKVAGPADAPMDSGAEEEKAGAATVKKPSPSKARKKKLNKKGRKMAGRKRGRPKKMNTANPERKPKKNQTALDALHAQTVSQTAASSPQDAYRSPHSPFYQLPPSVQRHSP

Regarding `CC(C)(C)c1ccc(-n2cc(C(=O)NC3CCNCC3)nc2-c2ccccc2)cc1` [Compound 1], the pIC50 (as a rule, the negative decadic logarithm of the IC50, by convention in mol/L) is 6.05 and 6.03 on ENL-AF4 interaction; 5.49 against AF9-DOT1L interaction. In addition, the “Inhibition of DOT1L enzyme activity” value on DOT1L is “did not significantly inhibit”.
